According to patent publication US8106037B2, “Identification and treatment of estrogen responsive prostate tumors” (The Brigham and Women's Hospital, Inc., priority 2007, dated 2012):
Entries after “also recorded” stand apart in the source; their conditions may differ. Where two headings read alike, the source gives them in different places.

Experiments:
[1] = test system: TMPRSS2-ERG fusion transcript; assay: TMPRSS2-ERG fusion transcript expression in non-ERβ-overexpressing VCaP cells
Procedure: (§1) Fusion status was determined by ERG break-apart FISH assay (Pemer, et al., Cancer Res. 66:8337-8341 (2006)) and QPCR (for cases not assessable by FISH). An aliquot of the RNA used for DASL was used for QPCR. cDNA was synthesized as above. TMPRSS2-ERG fusion product was determined using SYBR green assay (Qiagen) with TMPRSS2-ERG_f and TMPRSS2-ERG_r primers (Tomlins, et al., Science 310:644-648 (2005)). RPL13A was used for normalization. For estrogen experiments, cDNA was synthesized using the Omniscript RT kit (Qiagen) and HMBS was used for normalization. Relative quantitation was carried out using the comparative Ct method.
(§2) The prostate cancer cell lines NCI-H660 and VCaP were maintained according to ATCC instructions. The cells were hormone-deprived by culture for three days in their respective phenol red-free media (for NCI-H660 without E2 and hydrocortisone) supplemented with 5% CDT-FBS (Invitrogen). Cells were challenged with hormones or vehicle for 12, 24 or 48 hours.
(§3) Reagents were used at a final concentration of 10^−8M.

[2] = test system: NCI-H660 prostate cancer cell line; assay: Cell growth assay (Cell Titer-Glo luminescent assay); assay type: cell-based; settings: final concentration 10^−8M, relative cell number 2-12 d
Procedure: The prostate cancer cell lines NCI-[…] and VCaP were maintained according to ATCC instructions. […] NCI-[…] cells were seeded in a 96-well plate ( 5×10^3 cells/well) and stimulated with hormone or vehicle alone. Relative cell number was determined before (time 0 used for normalization) and after stimulation (2, 3, 6, 8, 10, 12 d) using the Cell Titer-Glo luminescent assay (Promega).

[3] = test system: TMPRSS2-ERG fusion transcript; assay: TMPRSS2-ERG fusion transcript expression in ERβ-overexpressing VCaP cells
Procedure: as §1, §2, §3
VCaP cells were transiently transfected with ERβ containing plasmid using Lipofectamine2000 (Invitrogen) for 6 h. Transfection medium was removed after 6 h, cells were washed in PBS twice, and phenol red-free DMEM (Cellgro) supplemented with 5% CDT-FBS (Invitrogen) was added. Cells were challenged with hormones or vehicle 48 hours after transfection. NCI-H660 cells were transiently transfected with smart pool siRNA against ERβ (Dharmacon).

[4] = test system: TMPRSS2-ERG fusion transcript; assay: TMPRSS2-ERG fusion transcript expression (QPCR) in NCI-H660 cells
Procedure: as §1, §2, §3

[5] = NCI-H660 cells, final concentration 10^−8M, 12, 24 or 48 hours
[6] = ERβ-overexpressing VCaP cells (VCaP-ERβ, ERα negative), final concentration 10^−8M

Row | Compound | growth of NCI-H660 cells [2] | TMPRSS2-ERG expression [4, 5] | TMPRSS2-ERG fusion transcript expression [3, 6] | TMPRSS2-ERG expression [4] | also measured
1 | N#CC(Cc1ccc(O)cc1)c1ccc(O)cc1 (stereo not drawn) [DPN, diarylpropionitrile] | suppressed growth | suppressed expression of the fusion; also recorded: significantly decreased TMPRSS2-ERG expression |  |  | TMPRSS2-ERG fusion transcript expression [1]: down-regulation was not seen; TMPRSS2-ERG fusion transcript expression [3]: down-regulation of the TMPRSS2-ERG fusion transcript
2 | C[C@]12CC[C@@H]3c4ccc(O)cc4CC[C@H]3[C@@H]1CC[C@@H]2O [E2, 17β-estradiol] | significantly inhibited |  | down-regulation of the TMPRSS2-ERG fusion transcript |  | TMPRSS2-ERG fusion transcript expression ([1]; non-ERβ-overexpressing VCaP cells, final concentration 10^−8M): down-regulation was not seen
3 | CCCc1c(-c2ccc(O)cc2)nn(-c2ccc(O)cc2)c1-c1ccc(O)cc1 [PPT, propylpyrazole triol] |  |  |  | increased TMPRSS2-ERG expression | 
4 | C[C@]12CC[C@@H]3c4ccc(O)cc4C[C@@H](CCCCCCCCC[S+]([O-])CCCC(F)(F)C(F)(F)F)[C@H]3[C@@H]1CC[C@@H]2O (stereo partly drawn) [fulvestrant] |  | reduced the expression of the fusion transcript |  |  | 
5 | O=C(c1ccc(OCCN2CCCCC2)cc1)c1c(-c2ccc(O)cc2)sc2cc(O)ccc12 [raloxifene] |  | up-regulation of TMPRSS2-ERG | remarkable down-regulation of the fusion transcript |  | 
6 | Oc1ccc(/C=C/c2cc(O)cc(O)c2)cc1 [resveretrol] |  |  |  | reduced the expression of the fusion transcript | 
